The term Ki denotes a dissociation constant, usually derived from enzyme kinetics or from competition with a known ligand. The term IC50 denotes the concentration at which inhibition is half-maximal.

Structures can show the parent of a compound that is named as a salt. Where two headings read alike, the source gives them in different places.

Experimental findings from US11702418B2, “SOS1 inhibitors” (priority 2019, dated 2023) are described below.

Experiment [1] addresses recombinant human SOS1 polypeptide (amino acids 560-1049) (Homo sapiens (Human), UniProt Q07889). The experiment can be described thus: biochemical. It is filed as binding. To be noted: read-out: Ki, Inhibition of Labeled Tracer Binding to SOS1.
The test system of experiment [2] is pERK in MKN1 cells. The experiment can be described thus: cells. It counts as cell-based. To be noted: Homo sapiens.
Method: The cells were incubated for approximately 0.5-1 hour with the compounds solubilized in DMSO at 37° C. Cells were immediately fixed by adding 50 μL of 4% formaldehyde to all wells in a fume hood and the plates were incubated for 20 minutes at room temperature. The formaldehyde was discarded from the plates and 150 μL of ice-cold methanol was added to permeabilize the cells for 10 minutes at −20° C. The methanol was discarded from each of the plates and any liquid remaining in the plate by tapping the plate against paper towels. […] The plates were incubated overnight at 4° C. on a shaker.
On Assay day 2, the primary antibody solution was removed. […] The secondary antibody solution as removed and each plate was washed with PBST 3× times. Any liquid remaining was discarded and the plate was imaged using the Licor Odyssey machine according to the manufacturer's instruction, using a set focus length at 3 mm and both 800 nm and 700 nm filters. The GAPDH normalized scan values for each well were divided by the average of vehicle wells to get the % of pERK inhibition. The IC50 values were then calculated with the Graph pad Prism software.
Setting [3] is: HTRF displacement, Cy5 labelled tracer, Morrison equation for competitive binding.
Setting [4] is: MKN-1, pERK inhibition, In-Cell Western, MKN1 or H358 cells (Table 24 does not say which), 0.5-1 hour incubation, read-out: IC50.
Setting [5] is: MKN-1, pERK inhibition, In-Cell Western, MKN1 or H358 cells (Table 24 does not say which), 0.5-1 hour incubation.

Sequence of recombinant human SOS1 polypeptide (amino acids 560-1049) (Q07889 560-1049): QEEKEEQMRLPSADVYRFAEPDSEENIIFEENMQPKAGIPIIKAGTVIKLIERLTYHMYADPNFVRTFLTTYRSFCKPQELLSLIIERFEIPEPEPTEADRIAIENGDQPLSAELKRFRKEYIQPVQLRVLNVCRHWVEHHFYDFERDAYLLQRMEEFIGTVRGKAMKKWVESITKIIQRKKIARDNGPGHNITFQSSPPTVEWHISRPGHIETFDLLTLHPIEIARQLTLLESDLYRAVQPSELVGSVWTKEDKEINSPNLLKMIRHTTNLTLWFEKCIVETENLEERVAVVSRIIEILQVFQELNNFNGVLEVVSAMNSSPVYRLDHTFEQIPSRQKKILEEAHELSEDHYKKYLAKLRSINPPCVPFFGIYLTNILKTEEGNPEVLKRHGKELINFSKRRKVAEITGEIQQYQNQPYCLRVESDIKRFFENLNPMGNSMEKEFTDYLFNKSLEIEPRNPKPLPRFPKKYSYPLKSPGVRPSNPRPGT

As to `COC1(C)CN(c2cc3c(N[C@H](C)c4cccc(C(F)(F)F)c4C)nnc(C)c3cn2)C1` [Example 12-37], the Ki in experiment [1] (setting [3]) came out at 0.85 nM. Besides, in experiment [2] (setting [4]), the IC50 is 32 nM.
`Cc1c([C@@H](C)Nc2nncc3ccc(OC4CCN(C)CC4)cc23)cccc1C(F)(F)F` [Example 2-6, (R)-N-(1-(2-methyl-3-(trifluoromethyl)phenyl)ethyl)-7-((1-methylpiperidin-4-yl)oxy)phthalazin-1-amine]: the Ki in experiment [1] (setting [3]) is 2.1 nM. For the same molecule, the IC50 in experiment [2] (setting [4]) came out at 83 nM.
Turning to `Cc1c([C@@H](C)Nc2nnc(C)c3cnc(N4CC(O)C4)cc23)cccc1C(F)(F)F` [Example 12-22], the Ki in experiment [1] (setting [3]) was determined as 1.24 nM. The IC50 in experiment [2] (setting [4]) turned out to be 89 nM.
As to `Cc1c(C#N)cc(F)cc1[C@@H](C)Nc1nnc(C)c2cnc(N3CCN4CCOC[C@@H]4C3)cc12` [Example 12-103], the Ki in experiment [1] (setting [3]) came to 10.9 nM. In addition, the IC50 in experiment [2] (setting [4]) stood at 107 nM.
As to `Cc1c([C@@H](C)Nc2nnc(C)c3ccc(N4CCC5(CCNCC5)C4=O)cc23)cccc1C(F)(F)F` [Example 10-39, (R)-2-(1-methyl-4-((1-(2-methyl-3-(trifluoromethyl)phenyl)ethyl)amino)phthalazin-6-yl)-2,8-diazaspiro[4.5]decan-1-one hydrochloride salt], the Ki in experiment [1] worked out at 1.49 nM. In experiment [2] (MKN-1), the IC50 was determined as 110 nM.
With `Cc1nnc(N[C@H](C)c2cc(N)cc(C(F)(F)F)n2)c2cc(N3CC(C)(N(C)C)C3)ccc12` [Example 16-9, (R)-N-(1-(4-amino-6-(trifluoromethyl)pyridin-2-yl)ethyl)-7-(3-(dimethylamino)-3-methylazetidin-1-yl)-4-methylphthalazin-1-amine], the Ki in experiment [1] (setting [3]) is 35.6 nM. The IC50 in experiment [2] (setting [4]) worked out at 643 nM.
`Cc1c([C@@H](C)Nc2nnc(C)c3cnc(N4CC5CC(C4)O5)cc23)cccc1C(F)(F)F` [Example 12-2, 7-(6-oxa-3-azabicyclo[3.1.1]heptan-3-yl)-4-methyl-N—((R)-1-(2-methyl-3-(trifluoromethyl)phenyl)ethyl)pyrido[3,4-d]pyridazin-1-amine]: in experiment [1] (setting [3]), the Ki worked out at 0.6 nM. Besides, the IC50 in experiment [2] (setting [4]) was 9 nM.
For `Cc1nnc(N[C@H](C)c2cccc(F)c2Cl)c2cc(N3CC(C)(N(C)C)C3)ncc12` [Example 12-85], the Ki in experiment [1] (setting [3]) is 27.6 nM. Besides, in experiment [2] (setting [4]), the IC50 worked out at 602 nM.
The corresponding values for `Cc1nnc(N[C@H](C)c2cc(N)cc(C(F)(F)F)n2)c2cc(N3C[C@H]4C[C@@H]3CO4)ccc12` [Example 16-8, N-((R)-1-(4-amino-6-(trifluoromethyl)pyridin-2-yl)ethyl)-7-((1R, 4R)-2-oxa-5-azabicyclo[2.2.1]heptan-5-yl)-4-methylphthalazin-1-amine] are 21.2 nM and 93 nM.
For `Cc1c([C@@H](C)Nc2nnc(C)c3ccc(N4CCS(=O)(=O)CC4)cc23)cccc1C(F)(F)F` [Example 10-23, (R)-4-(1-methyl-4-((1-(2-methyl-3-(trifluoromethyl)phenyl)ethyl)amino)phthalazin-6-yl)thiomorpholine 1,1-dioxide] the same measures were 0.42 nM and 19 nM.
Turning to `Cc1c([C@@H](C)Nc2nnc(C)c3ccc(C4CCNC(=O)C4)cc23)cccc1C(F)(F)F` (stereo partly drawn) [Example 10-3, 4-(1-methyl-4-(((R)-1-(2-methyl-3-(trifluoromethyl)phenyl)ethyl)amino)phthalazin-6-yl)piperidin-2-one], the Ki in experiment [1] (setting [3]) is 0.71 nM. In addition, the IC50 in experiment [2] (setting [4]) is 85 nM.
For `Cc1c(C#N)cccc1[C@@H](C)Nc1nnc(C)c2cc(C(F)(F)F)c(N3CC(C)(N(C)C)C3)cc12` [Example 19-1, (R)-3-(1-((7-(3-(dimethylamino)-3-methylazetidin-1-yl)-4-methyl-6-(trifluoromethyl)phthalazin-1-yl)amino)ethyl)-2-methylbenzonitrile] the same measures were 6.16 nM and 156 nM.
As to `Cc1c([C@@H](C)Nc2nnc(C)c3ccc(N4CC5CCC(C4)N5C)cc23)cccc1C(F)(F)F` [Example 10-29, 4-methyl-N-((R)-1-(2-methyl-3-(trifluoromethyl)phenyl)ethyl)-7-(8-methyl-3,8-diazabicyclo[3.2.1]octan-3-yl)phthalazin-1-amine hydrochloride salt], the Ki in experiment [1] was 0.39 nM. The same molecule yielded an IC50 in experiment [2] (MKN-1) of 70 nM.
For `Cc1c([C@@H](C)Nc2nnc(C)c3ccc(N4C5CCC4CN(C)C5)cc23)cccc1C(F)(F)F` [Example 10-28, 4-methyl-N-((R)-1-(2-methyl-3-(trifluoromethyl)phenyl)ethyl)-7-(3-methyl-3,8-diazabicyclo[3.2.1]octan-8-yl)phthalazin-1-amine hydrochloride salt], the Ki in experiment [1] was 0.45 nM. In addition, the half-inhibitory concentration (IC50) in experiment [2] (MKN-1) is 161 nM.
As to `Cc1nnc(N[C@H](C)c2cccc(C(F)(F)F)c2F)c2cc(N3CC(C)(O)C3)ncc12` [Example 12-61], in experiment [1] (setting [3]), the Ki is 1.68 nM. For the same molecule, in experiment [2] (setting [4]), the IC50 was 21 nM.
In the case of `Cc1cc([C@@H](C)Nc2nnc(C)c3ccc(N4CCOCC4)cc23)cc(C(F)(F)F)c1` [Example 10-61, (R)-4-methyl-N-(1-(3-methyl-5-(trifluoromethyl)phenyl)ethyl)-7-morpholinophthalazin-1-amine], the Ki in experiment [1] (setting [3]) came to 1.61 nM. In addition, the IC50 in experiment [2] (setting [4]) amounted to 57 nM.
As to `Cc1c([C@@H](C)Nc2nnc(C)c3ccc(N4CCC5(CCNC5)CC4)cc23)cccc1C(F)(F)F` [Example 10-36, (R)-4-methyl-N-(1-(2-methyl-3-(trifluoromethyl)phenyl)ethyl)-7-(2,8-diazaspiro[4.5]decan-8-yl)phthalazin-1-amine hydrochloride salt], the Ki in experiment [1] was found to be 0.23 nM. Further, the IC50 in experiment [2] (MKN-1) came out at 79 nM.
In the case of `Cc1cc(C#N)cc([C@@H](C)Nc2nnc(C)c3cnc(N4CCOCC4)cc23)c1` [Example 21-3, (R)-3-methyl-5-(1-((4-methyl-7-morpholinopyrido[3,4-d]pyridazin-1-yl)amino)ethyl)benzonitrile], the Ki in experiment [1] worked out at 14.4 nM. This molecule also displayed an IC50 in experiment [2] (setting [5]) of 221 nM.
For the molecule `Cc1c(C#N)cccc1[C@@H](C)Nc1nnc(C)c2cnc(N3C[C@H]4CC[C@@H]3CN4CC(F)(F)F)cc12` [Example 12-76], in experiment [1] (setting [3]), the Ki worked out at 1.06 nM. In experiment [2] (setting [4]), the IC50 was 56 nM.
For `Cc1cc(C#N)cc([C@@H](C)Nc2nnc(C)c3ccc(N4CCOCC4)cc23)c1` [Example 21-4, (R)-3-methyl-5-(1-((4-methyl-7-morpholinophthalazin-1-yl)amino)ethyl)benzonitrile], the Ki in experiment [1] was 13.7 nM. For the same molecule, the IC50 in experiment [2] (setting [5]) came out at 118 nM.
As to `Cc1c(C#N)cccc1[C@@H](C)Nc1nnc(C)c2cnc(N3CCN(c4cnn(C)c4)CC3)cc12` [Example 12-36], the Ki in experiment [1] (setting [3]) is 0.99 nM. In addition, the IC50 in experiment [2] (setting [4]) was 12 nM.
As for `Cc1c(C#N)cccc1[C@@H](C)Nc1nnc(C)c2cnc(N3CCC(N(C)C)CC3)cc12` [Example 12-28], in experiment [1] (setting [3]), the Ki is 1.53 nM. Besides, in experiment [2] (setting [4]), the IC50 is 17 nM.
With `Cc1c(C#N)cccc1[C@@H](C)Nc1nnc(C)c2ccc(N3CC(C)(N(C)C)C3)cc12` [Example 10-74, (R)-3-(1-((7-(3-(dimethylamino)-3-methylazetidin-1-yl)-4-methylphthalazin-1-yl)amino)ethyl)-2-methylbenzonitrile Hydrochloride salt], in experiment [1], the Ki turned out to be 4.26 nM. The same molecule had an IC50 in experiment [2] (MKN-1) of 65 nM.
With `Cc1nnc(N[C@H](C)c2cccc(F)c2F)c2cc(N3CC(C)(N(C)C)C3)ncc12` [Example 12-83], the Ki in experiment [1] (setting [3]) is 50.6 nM. Further, in experiment [2] (setting [4]), the IC50 is 749 nM.
For `CCN1CCN(c2cc3c(N[C@H](C)c4cccc(C#N)c4C)nnc(C)c3cn2)CC1` [Example 12-52] the same measures were 1.06 nM and 60 nM.
As to `Cc1c(C#N)cccc1[C@@H](C)Nc1nnc(C)c2cnc(N3CCC(C)(O)CC3)cc12` [Example 12-53], the Ki in experiment [1] (setting [3]) was 0.83 nM. In addition, the IC50 in experiment [2] (setting [4]) was determined as 47 nM.
`Cc1c(C(F)F)cccc1[C@@H](C)Nc1nnc(C)c2ccc(N3CCOCC3)cc12` [Example 10-65, (R)-N-(1-(3-(difluoromethyl)-2-methylphenyl)ethyl)-4-methyl-7-morpholinophthalazin-1-amine Hydrochloride salt]: the Ki in experiment [1] was 0.95 nM. In experiment [2] (MKN-1), this molecule gave an IC50 of 23 nM.
Turning to `Cc1c(C#N)cccc1[C@@H](C)Nc1nnc(C)c2ccc(N3CCN4CCOC[C@@H]4C3)cc12` [Example 10-56, 3-((R)-1-((7-((S)-hexahydropyrazino[2,1-c][1,4]oxazin-8(1H)-yl)-4-methylphthalazin-1-yl)amino)ethyl)-2-methylbenzonitrile Formate salt], the Ki in experiment [1] is 1.59 nM. This molecule returned an IC50 in experiment [2] (MKN-1) of 26 nM.
Consider `Cc1c([C@@H](C)Nc2nnc(C)c3ccc(N4C[C@@H]5CC[C@H]4CN5C)cc23)cccc1C(F)(F)F` [Example 10-31, 4-methyl-N-((R)-1-(2-methyl-3-(trifluoromethyl)phenyl)ethyl)-7-((1S,4S)-5-methyl-2,5-diazabicyclo[2.2.2]octan-2-yl)phthalazin-1-amine], for which the Ki in experiment [1] (setting [3]) worked out at 0.35 nM. For the same molecule, in experiment [2] (setting [4]), the IC50 was 3580 nM.
In the case of `Cc1nnc(N[C@H](C)c2cccc(C(F)(F)C(C)(C)O)c2F)c2cc(N3CC4CC(C3)O4)ncc12` [Example 20-3, 1-(3-((1R)-1-((7-(6-oxa-3-azabicyclo[3.1.1]heptan-3-yl)-4-methylpyrido[3,4-d]pyridazin-1-yl)amino)ethyl)-2-fluorophenyl)-1,1-difluoro-2-methylpropan-2-ol], the Ki in experiment [1] (setting [3]) was determined as 0.92 nM. The IC50 in experiment [2] (setting [4]) came to 16 nM.
Take `Cc1c([C@@H](C)Nc2nnc(C)c3cnc(N4CC(C)(N(C)C)C4)cc23)cccc1C(F)(F)F` [Example 12-19]: the Ki in experiment [1] (setting [3]) worked out at 1 nM. In addition, in experiment [2] (setting [4]), the IC50 amounted to 59 nM.
Take `Cc1c([C@@H](C)Nc2nncc3ccc(N4CCC5C(CCCN5C)C4)cc23)cccc1C(F)(F)F` (stereo partly drawn) [Example 1-42, N-((R)-1-(2-methyl-3-(trifluoromethyl)phenyl)ethyl)-7-(1-methyloctahydro-1,6-naphthyridin-6(2H)-yl)phthalazin-1-amine]: in experiment [2] (setting [4]), the 50% inhibitory concentration (IC50) worked out at 201 nM.
